Article PMC4991273 (2016)

Experiments:
[1] = tested on: myc2345 (DNA, G4) TGAGGGTGGGGAGGGTGGGGAA; test: fluorescence emission titration; settings: K+ 100 mM; 10 mM lithium cacodylate, pH 7.3; 2 μM compound; per motif (2 compounds per G-quadruplex); per site
[2] = tested on: PDGF-A (DNA, G4) GGAGGCGGGGGGGGGGGGGCGGGGGCGGGGGCGGGGGAGGGGCGCGGC; test: fluorescence emission titration; settings: K+ 100 mM (DNA annealed in 25 mM KCl); 10 mM lithium cacodylate, pH 7.3; 2 μM compound
[3] = tested on: ss17 (DNA, single strand) CCAGTTCGTAGTAACCC; test: fluorescence emission titration; settings: K+ 100 mM; 10 mM lithium cacodylate, pH 7.3; 2 μM compound; per motif of 5 bases; per site
[4] = tested on: ds17 (DNA, duplex) CCAGTTCGTAGTAACCC/GGGTTACTACGAACTGG; test: fluorescence emission titration; settings: K+ 100 mM; 10 mM lithium cacodylate, pH 7.3; 2 μM compound; per motif (2 compounds per 5 base pairs); per site
[5] = tested on: TBA (DNA, G4) GGTTGGTGTGGTTGG; test: fluorescence emission titration; settings: K+ 100 mM; 10 mM lithium cacodylate, pH 7.3; 2 μM compound; per site
[6] = tested on: ss17 (DNA, single strand) CCAGTTCGTAGTAACCC; test: fluorescence enhancement and lifetime (TCSPC); settings: K+ 100 mM; 10 mM lithium cacodylate, pH 7.3; 2 μM compound
[7] = tested on: ds17 (DNA, duplex) CCAGTTCGTAGTAACCC/GGGTTACTACGAACTGG; test: fluorescence enhancement and lifetime (TCSPC); settings: K+ 100 mM; 10 mM lithium cacodylate, pH 7.3; 2 μM compound
[8] = tested on: myc2345 (DNA, G4) TGAGGGTGGGGAGGGTGGGGAA; test: fluorescence enhancement and lifetime (TCSPC); settings: K+ 100 mM; 10 mM lithium cacodylate, pH 7.3; 2 μM compound
[9] = tested on: PDGF-A (DNA, G4) GGAGGCGGGGGGGGGGGGGCGGGGGCGGGGGCGGGGGAGGGGCGCGGC; test: fluorescence enhancement and lifetime (TCSPC); settings: K+ 100 mM (DNA annealed in 25 mM KCl); 10 mM lithium cacodylate, pH 7.3; 2 μM compound
[10] = tested on: TBA (DNA, G4) GGTTGGTGTGGTTGG; test: fluorescence enhancement and lifetime (TCSPC); settings: K+ 100 mM; 10 mM lithium cacodylate, pH 7.3; 2 μM compound

| K a [1] | K a [2] | K a [3] | K a [4] | K a [5] | binding [6] | binding [7] | binding [8] | binding [9] | binding [10] | SMILES |
| --- | --- | --- | --- | --- | --- | --- | --- | --- | --- | --- |
| 8.4 ± 2.9 × 10^5 M^-1 | 1.6 ± 1.5 × 10^6 M^-1 | 1.0 ± 0.2 × 10^6 M^-1 | 2.1 ± 0.3 × 10^6 M^-1 | 1.2 ± 0.4 × 10^6 M^-1 | – | – | – | – | – | CCCn1c2cccc3oc4cccc5c4c(c4c1cccc4[n+]5CCC)-c32 |
| – | – | – | – | – | yes | yes | yes | yes | yes | c1cc2oc3cccc4c3c3c5c(cccc5[n+]4CCN4CCOCC4)n(CCN4CCOCC4)c(c1)c2-3 |
